# Patent US20250340574A1, “MODULATORS OF CYSTIC FIBROSIS TRANSMEMBRANE CONDUCTANCE REGULATOR” (Vertex Pharmaceuticals Incorporated, priority 2022, published 2025)
# Where two headings read alike, the source gives them in different places.
# Target: T1, CFTR (F508del/MF-HBE cells) (Homo sapiens, UniProt P13569, DEL508-508)
# T1 construct: human bronchial epithelial (HBE) cells derived from CF subjects heterozygous for F508del and a minimal function CFTR mutation (F508del/MF-HBE); endogenous in cells; host or cells: Primary human bronchial epithelial cells from CF subjects (F508del/MF genotype), differentiated at an air-liquid interface
# Experiment: Ussing chamber assay of CFTR-mediated short-circuit currents, Assay C (0.026 μM to 25 μM, 6 concentrations)
# Type: cell-based
# Settings: with 33 nM potentiator and 18 μM Tezacaftor, 20% human serum; for Emax: read-out: C Max activity (%)
# Protocol: Ussing chamber experiments were performed using human bronchial epithelial (HBE) cells derived from CF subjects heterozygous for F508del and a minimal function CFTR mutation (F508del/MF-HBE) and cultured as previously described (Neuberger T, Burton B, Clark H, Van Goor F Methods Mol Biol 2011:741:39-54). After four days the apical media was removed, and the cells were grown at an air liquid interface for >14 days prior to use.
# To isolate the CFTR-mediated short-circuit (ISC) current, F508del/MF-HBE grown on Costar® Snapwell™ cell culture inserts were mounted in an Ussing chamber and the transepithelial ISC was measured under voltage-clamp recording conditions (Vhold=0 mV) at 37° C. The basolateral solution contained (in mM) 145 NaCl, 0.83 K2HPO4, 3.3 KH2PO4, 1.2 MgCl2, 1.2 CaCl2, 10 Glucose, 10 HEPES (pH adjusted to 7.4 with NaOH) and the apical solution contained (in mM) 145 NaGluconate, 1.2 MgCl2, 1.2 CaCl2, 10 glucose, 10 HEPES (pH adjusted to 7.4 with NaOH) and 30 μM amiloride to block the epithelial sodium channel. Forskolin (20 μM) was added to the apical surface to activate CFTR, followed by apical addition of a CFTR inhibitor cocktail consisting of BPO, GlyH-101, and CFTR inhibitor 172 (each at 20 μM final assay concentration) to specifically isolate CFTR currents. The CFTR-mediated ISC (μA/cm^2) for each condition was determined from the peak forskolin response to the steady-state current following inhibition.
# The activity of the CFTR corrector compounds on the CFTR-mediated ISC was determined in Ussing chamber studies as described above. The F508del/MF-HBE cell cultures were either incubated with the corrector compounds at a range of concentrations in combination with 33 nM (6R,12R)-17-amino-12-methyl-6,15-bis(trifluoromethyl)-13,19-dioxa-3,4,18-triazatricyclo[12.3.1.12,5]nonadeca-1(18),2,4,14,16-pentaen-6-ol and 18 μM Tezacaftor or were incubated with the corrector compounds at a single fixed concentration of 1 μM in combination with 44 nM (6R,12R)-17-amino-12-methyl-6,15-bis(trifluoromethyl)-13,19-dioxa-3,4,18-triazatricyclo[12.3.1.12,5]nonadeca-1(18),2,4,14,16-pentaen-6-ol and 18 μM Tezacaftor for 18-24 hours at 37° C. and in the presence of 20% human serum. The concentration of corrector compounds with 44 nM or 33 nM (6R,12R)-17-amino-12-methyl-6,15-bis(trifluoromethyl)-13,19-dioxa-3,4,18-triazatricyclo[12.3.1.12,5]nonadeca-1(18),2,4,14,16-pentaen-6-ol and 18 μM Tezacaftor during the 18-24 hours incubations was kept constant throughout the Ussing chamber measurement of the CFTR-mediated ISC to ensure compounds were present throughout the entire experiment. The efficacy and potency of the putative F508del correctors was compared to that of the known Vertex corrector, (14S)-8-[3-(2-{Dispiro[2.0.2.1]heptan-7-yl}ethoxy)-1H-pyrazol-1-yl]-12,12-dimethyl-2λ^6-thia-3,9,11,18,23-pentaazatetracyclo[17.3.1.111,14.05,10]tetracosa-1(22),5,7,9,19(23),20-hexaene-2,2,4-trione, in combination with 18 μM Tezacaftor and 1 μM Ivacaftor.
# • Assay A: 0.1 μM to 25 μM, 6 concentrations • Assay B: 0.00001 μM to 25 μM, 12 concentrations • Assay C: 0.026 μM to 25 μM, 6 concentrations • Assay D: Activity at single concentration of 1 μM
# T1 sequence (P13569 with tags, fused parts or gaps DEL508-508): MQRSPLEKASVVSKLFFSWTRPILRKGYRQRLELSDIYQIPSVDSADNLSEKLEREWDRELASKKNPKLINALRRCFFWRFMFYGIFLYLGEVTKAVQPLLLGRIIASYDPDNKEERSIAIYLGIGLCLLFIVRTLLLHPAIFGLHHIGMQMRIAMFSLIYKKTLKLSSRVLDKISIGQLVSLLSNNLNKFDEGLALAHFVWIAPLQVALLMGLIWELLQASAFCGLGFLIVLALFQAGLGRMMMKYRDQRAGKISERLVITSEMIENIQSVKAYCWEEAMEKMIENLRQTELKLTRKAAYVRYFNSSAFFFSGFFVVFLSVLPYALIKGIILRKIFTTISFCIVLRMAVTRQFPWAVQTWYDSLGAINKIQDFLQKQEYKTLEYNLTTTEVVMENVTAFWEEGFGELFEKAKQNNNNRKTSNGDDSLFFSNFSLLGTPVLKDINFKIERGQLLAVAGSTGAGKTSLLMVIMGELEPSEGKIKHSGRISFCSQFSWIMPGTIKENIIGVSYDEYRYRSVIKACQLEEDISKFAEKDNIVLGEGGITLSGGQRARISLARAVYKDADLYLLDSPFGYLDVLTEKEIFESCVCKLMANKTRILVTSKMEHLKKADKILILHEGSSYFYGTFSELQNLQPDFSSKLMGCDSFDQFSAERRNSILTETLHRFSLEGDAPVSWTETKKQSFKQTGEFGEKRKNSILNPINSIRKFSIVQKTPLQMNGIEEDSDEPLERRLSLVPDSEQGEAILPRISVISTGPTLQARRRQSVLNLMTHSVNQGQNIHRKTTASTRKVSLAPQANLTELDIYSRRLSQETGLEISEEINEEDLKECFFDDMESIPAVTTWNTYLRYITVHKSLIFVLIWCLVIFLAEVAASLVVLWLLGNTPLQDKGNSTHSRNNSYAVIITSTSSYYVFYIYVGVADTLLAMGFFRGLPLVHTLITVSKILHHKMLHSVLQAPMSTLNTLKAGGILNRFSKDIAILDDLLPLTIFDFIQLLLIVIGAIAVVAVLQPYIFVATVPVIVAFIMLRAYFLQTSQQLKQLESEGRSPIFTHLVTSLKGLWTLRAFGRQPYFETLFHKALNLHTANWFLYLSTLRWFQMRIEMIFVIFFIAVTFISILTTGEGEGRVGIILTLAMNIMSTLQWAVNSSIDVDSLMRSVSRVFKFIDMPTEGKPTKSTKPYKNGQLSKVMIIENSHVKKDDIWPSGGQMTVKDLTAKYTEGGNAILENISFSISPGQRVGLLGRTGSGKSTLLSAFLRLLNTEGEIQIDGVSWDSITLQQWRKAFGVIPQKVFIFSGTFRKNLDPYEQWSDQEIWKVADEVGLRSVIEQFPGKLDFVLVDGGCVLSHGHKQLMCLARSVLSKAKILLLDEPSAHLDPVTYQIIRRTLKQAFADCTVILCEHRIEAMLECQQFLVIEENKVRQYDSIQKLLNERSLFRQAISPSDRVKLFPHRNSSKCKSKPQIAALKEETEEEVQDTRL
Compound,Emax (18-24 hours),EC50,Emax
"Cc1cccc(C(C)C)c1-c1nc2nc(c1C)OC[C@@H](CC(C)(C)C)N(Cc1cnc3cc(C(C)C)n(C)c3n1)C(=O)c1cccc(c1)S(=O)(=O)N2 (atropisomer, axis not shown) [Compound I-179]",> 60%,3 to 30 µM,–
Cc1cccc(C)c1-c1cc2nc(n1)NS(=O)(=O)c1cccc(c1)C(=O)N(Cc1cnc3oc(C4CC4)cc3n1)[C@H]([C@H](C)OCc1ccccc1)CO2 [IV-62],–,3 to 30 µM,> 60%
CCc1cccc(CC)c1-c1cc2nc(n1)NS(=O)(=O)c1cccc(c1)C(=O)N(Cc1cnc3oc(C(C)(C)C)cc3n1)[C@H](CC(C)(C)C)CO2 [IV-67],–,3 to 30 µM,> 60%
"Cc1cccc(CC(C)C)c1-c1nc2nc(c1C)OC[C@@H](CC1(C)CC1)N(Cc1cnc3cc(C4(C(F)(F)F)CC4)n(C)c3n1)C(=O)c1cccc(c1)S(=O)(=O)N2 (atropisomer, axis not shown) [IV-77]",–,1 to 3 µM,> 60%
Cc1cccc(C)c1-c1cc2nc(n1)NS(=O)(=O)c1cccc(c1)C(=O)N(Cc1cnc3oc(C4(C)CC4)cc3n1)[C@H](C[C@@H]1CCCCO1)CO2 [IV-87],–,3 to 30 µM,> 60%
Cc1cccc(C)c1-c1cc2nc(n1)NS(=O)(=O)c1cccc(c1)C(=O)N(Cc1cnc3cc(C4(C(F)(F)F)CC4)n(C)c3n1)[C@H](C[C@@H]1CCCO1)CO2 [IV-103],–,1 to 3 µM,> 60%
CCc1cccc(CC)c1-c1nc2nc(c1C)OC[C@@H](CC(C)(C)C)N(Cc1cnc3cc(C4(C)CC4)n(C)c3n1)C(=O)c1cccc(c1)S(=O)(=O)N2 [IV-90],–,1 to 3 µM,> 60%
"Cc1cccc(CC(C)C)c1-c1nc2nc(c1C)OC[C@@H](COC(C)C)N(Cc1cnc3oc(C(C)(C)C)cc3n1)C(=O)c1cccc(c1)S(=O)(=O)N2 (atropisomer, axis not shown) [IV-43]",–,1 to 3 µM,> 60%
Cc1cccc(C)c1-c1cc2nc(n1)NS(=O)(=O)c1cccc(c1)C(=O)N(Cc1cnc3cc(C4(C(F)(F)F)CC4)n(C)c3n1)[C@H](COC(C)C)CO2 [IV-74],–,1 to 3 µM,> 60%
"Cc1cccc(CC(C)C)c1-c1nc2nc(c1C)OC[C@@H](CC(C)(C)C)N(Cc1ncc3cc(C4CC4)n(C)c3n1)C(=O)c1cccc(c1)S(=O)(=O)N2 (atropisomer, axis not shown) [IV-25]",–,1 to 3 µM,> 60%
Cc1cccc(CC(C)C)c1-c1nc2nc(c1C)OC[C@@H](COC(F)(F)F)N(Cc1cnc3cc(C4CC4)n(C)c3n1)C(=O)c1cccc(c1)S(=O)(=O)N2 [IV-69],–,1 to 3 µM,> 60%
Cc1cccc(C)c1-c1cc2nc(n1)NS(=O)(=O)c1cccc(c1)C(=O)N(Cc1cnc3oc(C4CC4)cc3n1)[C@H](C[C@@H]1CCCCO1)CO2 [IV-86],–,3 to 30 µM,> 60%
Cc1cccc(C)c1-c1cc2nc(n1)NS(=O)(=O)c1cccc(c1)C(=O)N(Cc1cnc3oc(C4CCC4)cc3n1)[C@H](CC1(C)CC1)CO2 [Compound I-133],> 60%,3 to 30 µM,–
Cc1cccc(C)c1-c1cc2nc(n1)NS(=O)(=O)c1cccc(c1)C(=O)N(Cc1cnc3oc(C(C)(C)C)cc3n1)[C@H](C[C@@H]1CCCO1)CO2 [IV-83],–,1 to 3 µM,> 60%
Cc1cccc(C)c1-c1cc2nc(n1)NS(=O)(=O)c1cccc(c1)C(=O)N(Cc1cnc3oc(C(C)(C)C)cc3n1)[C@@H](CC1CC(F)(F)C1)CO2 [IV-57],–,3 to 30 µM,> 60%
Cc1cccc(C)c1-c1cc2nc(n1)NS(=O)(=O)c1cccc(c1)C(=O)N(Cc1cnc3oc(C(C)(C)C)cc3n1)[C@H](C[C@@H]1CCCCO1)CO2 [IV-85],–,1 to 3 µM,> 60%

# Results, then the molecule that gave them:
Emax (18-24 hours),EC50,Emax,Compound
> 60%,1 to 3 µM,–,"Cc1cccc(CC(C)C)c1-c1nc2nc(c1C)OC[C@@H](CC(C)(C)C)N(Cc1cnc3oc(C4(C)CC4)cc3n1)C(=O)c1cccc(c1)S(=O)(=O)N2 (atropisomer, axis not shown) [Compound I-257]"
–,< 1 µM,> 60%,CCc1cccc(CC)c1-c1nc2nc(c1C)OC[C@@H](CC(C)(C)C)N(Cc1cnc3cc(C(C)(C)C)n(C)c3n1)C(=O)c1cccc(c1)S(=O)(=O)N2 [IV-91]
> 60%,< 1 µM,–,"Cc1cccc(CC2CCCC2)c1-c1nc2nc(c1C)OC[C@@H](CC(C)(C)C)N(Cc1cnc3cc(C(C)C)n(C)c3n1)C(=O)c1cccc(c1)S(=O)(=O)N2 (atropisomer, axis not shown; (P)) [Compound I-196, (5P,11R)-6-[2-(cyclopentylmethyl)-6-methylphenyl]-11-(2,2-dimethylpropyl)-7-methyl-12-{[5-methyl-6-(propan-2-yl)-5H-pyrrolo[2,3-b]pyrazin-3-yl]methyl}-9-oxa-2λ^6-thia-3,5,12,19-tetraazatricyclo[12.3.1.1∧{4,8}]nonadeca-1(17),4(19),5,7,14(18),15-hexaene-2,2,13-trione]"
–,< 1 µM,> 60%,CCc1cccc(CC)c1-c1cc2nc(n1)NS(=O)(=O)c1cccc(c1)C(=O)N(Cc1cnc3cc(C(C)(C)C)n(C)c3n1)[C@H](CC(C)(C)C)CO2 [IV-66]
> 60%,1 to 3 µM,–,Cc1cccc(C)c1-c1cc2nc(n1)NS(=O)(=O)c1cccc(c1)C(=O)N(Cc1nc3cc(C4CC4)oc3cc1F)[C@H](COC(C)C)CO2 [Compound I-198]
–,1 to 3 µM,> 60%,COc1c2nc(nc1-c1c(C)cccc1C)NS(=O)(=O)c1cccc(c1)C(=O)N(Cc1cnc3cc(C4(C(F)(F)F)CC4)n(C)c3n1)[C@H](COC(C)C)CO2 [IV-104]
–,< 1 µM,–,"Cc1cccc(C)c1-c1cc2nc(n1)NS(=O)(=O)c1cccc(c1)C(=O)N(Cc1cnc3cc(C(C)(C)C)n(C)c3n1)[C@H](C1CCCO1)CO2 (single isomer, unassigned) [IV-97]"
–,< 1 µM,> 60%,Cc1cccc(C)c1-c1nc2nc(c1C)OC[C@@H](C[C@H]1CCCO1)N(Cc1cnc3cc(C4(C(F)(F)F)CC4)n(C)c3n1)C(=O)c1cccc(c1)S(=O)(=O)N2 [IV-106]
–,< 1 µM,> 60%,Cc1cccc(CC(C)C)c1-c1nc2nc(c1C)OC[C@@H](COC(C)C)N(Cc1cnc3cc(C(C)(C)C(F)(F)F)n(C)c3n1)C(=O)c1cccc(c1)S(=O)(=O)N2 [IV-101]
–,< 1 µM,> 60%,"Cc1cccc(C)c1-c1cc2nc(n1)NS(=O)(=O)c1cccc(c1)C(=O)N(Cc1ccn3cc(C(C)C)nc3n1)[C@H](CC13CC(C1)C3)CO2 [IV-63, (11R)-11-(1-Bicyclo[1.1.1]pentanylmethyl)-6-(2,6-dimethylphenyl)-12-[(2-isopropyl-imidazo[1,2-a]pyrimidin-7-yl)methyl]-2,2-dioxo-9-oxa-2λ^6-thia-3,5,12,19-tetrazatricyclo[12.3.1.14,8]nonadeca-1(18),4(19),5,7,14,16-hexaen-13-one]"
–,< 1 µM,> 60%,"Cc1cccc(C)c1-c1cc2nc(n1)NS(=O)(=O)c1cccc(c1)C(=O)N(Cc1cnc3cc(C(C)(C)C)n(C)c3n1)[C@@H](CC1CC(F)(F)C1)CO2 (single isomer, unassigned) [IV-55, 12-[(6-tert-Butyl-5-methyl-pyrrolo[2,3-b]pyrazin-3-yl)methyl]-11-[(3,3-difluorocyclobutyl)methyl]-6-(2,6-dimethylphenyl)-2,2-dioxo-9-oxa-2λ^6-thia-3,5,12,19-tetrazatricyclo[12.3.1.14,8]nonadeca-1(18),4(19),5,7,14,16-hexaen-13-one]"
